# According to patent publication US5863889A, “ICAM-1/LFA-1 short-chain peptides and method of using same” (The University of Kansas, priority 1996, dated 1999):
# Columns and labels:
# Molt3 cells [1] = test: Homotypic adhesion assay (MDHC-induced clumping of T-cells); assay type: cell-based, human; set-up: key to Homotypic Adhesion Amount: Any sample having a score of "+++" or "++++" is considered to have a significant ability to modulate T-cell binding interaction; Any sample having a score of "+++" or "++++" is considered to have a significant ability to modulate T-cell binding interaction; settings: 10 μM MDHC
# Protocol: As before, the T-cells were Molt3 cells prepared in RPMI 1640 growth medium according to Example 2. An approximate 7 ml aliquot of the growth medium was centrifuged (Jouan Model GT422 at 1400 rpm for 6.5 minutes), and the supernatant fluid was decanted. The pellet was resuspended in the supernatant fluid at titer of about 1×10^6 cells/ml, with the excess supernatant fluid being retained for future resuspension of the peptides.
# A 228 nmol quantity of the LJCRF-1 (Sequence ID No. 6) peptide described in Table 1 was diluted with the supernatant fluid to a 500 μl final volume, and filtered in microcentrifuge filter tubes (0.22 micron filter; 3500 rpm for 6 minutes). Serial dilution of the filtered peptide with supernatant fluid was conducted to yield five 125 μl peptide solutions to give respective concentrations of about 115 μM, 230 μM, 460 μM, 910 μM, and 1.82 mM. At each concentration, a 125 μl portion of the cell suspension was pipetted into each 125 μl portion of the peptide solutions to yield combined samples having a 250 μl volume. The 250 μl samples were seeded into individual wells in a 48-well tissue culture grade plate (from Costar of Cambridge, Md.) and incubated at 37° C. for 30 minutes. Each sample received 5 μl of 2,5-methyl dihydroxy cinnamate ("MDHC") for a 10 μM final concentration, and was subsequently incubated for about 10 hours at 37° C. MDHC induces intercellular clumping of human T-cells (Tibbetts, Butler, and Benedict, submitted) by activating the LFA/ICAM binding interaction between respective cells.
# Pictures were taken of five random fields per sample using an Olympus photomicroscope having a 0.8 mm field at 400×magnification, and a 3.2 mm field of view at 100×magnification. The amount of clumping observed was quantified by determining the mean number of clumps per field ± a standard error.
# FIGS. 5, 6, and 7 replicate photographs taken from exemplary peptide assays. FIG. 5 is a photograph of the control sample having no peptides and no MDHC added, from which essentially no clumping of cells is observed. […] Any sample having a score of "+++" or "++++" is considered to have a significant ability to modulate T-cell binding interaction. This is similar to results obtained by incubating similarly treated cells with antibody against either LFA or ICAM.
# The homotypic adhesion assay assesses the actual ability of a candidate peptide to modulate the ability of T-cells to adhere with one another.
# ICAM-1 (CD54) = target: T1, ICAM-1 (CD54) (Homo sapiens, UniProt P05362); test: Antibody binding assay (FACS): anti-ICAM-1 mAb (mouse IgG anti-human CD54) binding to Molt3 T-cells after peptide incubation; assay type: cell-based; settings: mAb CD54; peptide 4550 μM; average ± standard error of runs
# T1 construct: host or cells: Molt3 human T-cell leukemia line
# T1 sequence (P05362 28-532): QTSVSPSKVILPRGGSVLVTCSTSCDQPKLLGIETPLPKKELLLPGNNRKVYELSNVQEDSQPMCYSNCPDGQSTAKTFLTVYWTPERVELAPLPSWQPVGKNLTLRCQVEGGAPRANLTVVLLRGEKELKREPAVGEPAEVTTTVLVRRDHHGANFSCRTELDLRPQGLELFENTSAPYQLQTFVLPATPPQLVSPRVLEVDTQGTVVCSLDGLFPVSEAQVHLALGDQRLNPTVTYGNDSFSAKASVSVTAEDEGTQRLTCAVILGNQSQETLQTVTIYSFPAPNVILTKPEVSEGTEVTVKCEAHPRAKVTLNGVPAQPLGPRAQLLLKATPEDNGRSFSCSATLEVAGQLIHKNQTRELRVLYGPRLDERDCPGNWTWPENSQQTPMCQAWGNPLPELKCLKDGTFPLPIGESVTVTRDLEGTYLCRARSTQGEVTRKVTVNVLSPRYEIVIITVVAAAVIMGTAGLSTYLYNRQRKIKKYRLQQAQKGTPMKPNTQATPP
# Molt3 cells [2] = test: Cell metabolic assay (MTT); assay type: cell-based
# Protocol: After taking the photographs in Example 3 (and in some instances no photographs were taken), cell metabolic activity was assessed by an MTT assay. A 37.5 μl portion of MTT dye (purchased from SIGMA of St. Louis, Mo.), i.e., 3-[4,5-dimethyl thiazole-2yl]-2, 5- diphenyl tetrazolium bromide; thiazolyl blue) was added to each well, and incubated with the cells at 37° C. for about six hours. After incubation, a 250 μl quantity of a MTT solubilization solution (of a type that may be purchased from either Fischer Scientific of St. Louis, Mo. or BCD Labs of Lawrence, Kans.) was added to each well, and incubated with the cells at room temperature overnight. In the morning, the spectrophotometric absorption of each plate was determined at 570 nm in a microplate ELISA reader manufactured by Cambridge Technologies of Water-town, Mass., in order to assess cell viability as an indicator of potential peptide toxicity.
Substance,Homotypic Adhesion Effect (Molt3 cells [1]; peptide 115 μM),Homotypic Adhesion Effect (Molt3 cells [1]; peptide 230 μM),Homotypic Adhesion Effect (Molt3 cells [1]; peptide 460 μM),Homotypic Adhesion Amount (Molt3 cells [1]; peptide 910 μM),Homotypic Adhesion Effect (Molt3 cells [1]; peptide 910 μM),Homotypic Adhesion Amount (Molt3 cells [1]; peptide 1820 μM),Homotypic Adhesion Effect (Molt3 cells [1]; peptide 1820 μM),"Fluorescence, % change from control of the medium fluorescence intensity (ICAM-1 (CD54)) [%]",MTT % Viability (Molt3 cells [2]; peptide 115 μM) [%],MTT % Viability (Molt3 cells [2]; peptide 230 μM) [%],MTT % Viability (Molt3 cells [2]; peptide 460 μM) [%],MTT % Viability (Molt3 cells [2]; peptide 910 μM) [%],MTT % Viability (Molt3 cells [2]; peptide 1820 μM) [%],metabolic activity by MTT (Molt3 cells [2]; peptide 1820 μM),metabolic activity / cellular respiration by MTT (Molt3 cells [2]; peptide 910 μM),Homotypic Adhesion Amount (Molt3 cells [1]; peptide 230 μM),Homotypic Adhesion Amount (Molt3 cells [1]; peptide 460 μM)
"LJCRF-5: LFA-1α derived short-chain peptide, Sequence ID No. 17 (GVDVDQDGETELIGAPLFYGEQRG)",Block,Block,Block,++++,Block,++++,Block,-17,95,84,81,52,20,decrease in metabolic activity,,,
"LJCRF-6: LFA-1α (insert) based short-chain peptide, Sequence ID No. 18 (ITDGEATDSGNIDAAKDIIYIIGI)",,,,,almost total inhibition,+++,Block,-4,,,,,,,,,
"MC-1-80: ICAM-1 derived short-chain peptide, Sequence ID No. 9 (LPRGGSVLVTG)",,,,,,,,,,,,,,,enhanced,,
"SC-3-223: LFA-1β derived peptide, identical to LJCRF-4 (Sequence ID No. 16), tested separately (DLSYSLDDLRNVKKLGGDLLRALNE)",Block,Block,Block,++++,Block,++++,Block,,103,109,112,108,75,,,+++,+++
